Type in all cases: cell-based
The subject of assay [1] is Staphylococcus aureus ATCC 29213. Briefly: MIC, broth microdilution, S. aureus ATCC 29213. (In broth dilution the organism is exposed to a series of concentrations in liquid medium.)
For assay [2], the system named is Escherichia coli ATCC 25922. Briefly: MIC, broth microdilution, E. coli ATCC 25922. The settings on record: ATCC25922, Table 1, wild type strain.
Assay [3] deals with Enterococcus faecium ATCC 19434. Description: MIC, E. faecium ATCC 19434. As to conditions: ATCC19434, Table 2.
In assay [4] the test system is Haemophilus influenzae ATCC 49247. Briefly: MIC, H. influenzae ATCC 49247. The settings on record: ATCC49247, Table 4.
The mark [5] stands for this setting: ATCC29213, Table 1, wild type strain, read-out: MIC S. aureus ATCC 29213.
The mark [6] stands for this setting: ATCC 29213 / MSSA, Table 2, read-out: MIC S. aureus (MSSA) ATCC 29213 CLSI control strain.

Converted amounts (≈) assume the structure as drawn. Read-outs that look alike come from different tables or passages of the source.

For `Cc1nc2c(=O)n(C3CC3)c3cc(-c4ccncc4F)c(F)cc3c2o1` [Compound 74, 5-cyclopropyl-8-fluoro-7-(3-fluoro-4-pyridyl)-2-methyl-oxazolo[4,5-c]quinolin-4-one], the MIC is 10 to 100 µg/mL (≈ 28.3 to 283 µM) in assay [1] (setting [5]); 10 to 100 µg/mL (≈ 28.3 to 283 µM) in assay [1] (setting [6]); 10 to 100 µg/mL (≈ 28.3 to 283 µM) in assay [2]; more than 100 µg/mL in assay [3]; 1 to 10 µg/mL (≈ 2.83 to 28.3 µM) in assay [4].
In the case of `N#Cc1c(F)cc(-c2cc3c(cc2F)c2ocnc2c(=O)n3C2CC2)cc1F` [Compound 65, 4-(5-cyclopropyl-8-fluoro-4-oxo-oxazolo[4,5-c]quinolin-7-yl)-2,6-difluoro-benzonitrile], the MIC in assay [1] (setting [5]) was 1 to 10 µg/mL (≈ 2.62 to 26.2 µM); in assay [1] (setting [6]), 1 to 10 µg/mL (≈ 2.62 to 26.2 µM); in assay [2], more than 100 µg/mL; in assay [3] it was more than 100 µg/mL; in assay [4] it was 10 to 100 µg/mL (≈ 26.2 to 262 µM).
As to `CN(C)C(=O)c1ccc(-c2cc3c(cc2F)c2ocnc2c(=O)n3C2CC2)cc1` [Compound 66, 4-(5-cyclopropyl-8-fluoro-4-oxo-oxazolo[4,5-c]quinolin-7-yl)-N,N-dimethyl-benzamide], the MIC in assay [1] (setting [5]) was 1 to 10 µg/mL (≈ 2.55 to 25.5 µM); in assay [1] (setting [6]), 1 to 10 µg/mL (≈ 2.55 to 25.5 µM); in assay [2] it was more than 100 µg/mL; in assay [3], more than 100 µg/mL; in assay [4], 10 to 100 µg/mL (≈ 25.5 to 255 µM).
As to `COc1ccc(-c2cc3c(cc2F)c2ocnc2c(=O)n3C2CC2)cc1` [Compound 63, 5-cyclopropyl-8-fluoro-7-(4-methoxyphenyl)oxazolo[4,5-c]quinolin-4-one], the MIC in assay [1] (setting [5]), in assay [1] (setting [6]), in assay [2], in assay [3] and in assay [4] was more than 100 µg/mL throughout.
In the case of `O=c1c2ncoc2c2cc(F)c(-c3ccc(C(F)(F)F)nc3)cc2n1C1CC1` [Compound 60, 5-cyclopropyl-8-fluoro-7-[6-(trifluoromethyl)-3-pyridyl]oxazolo[4,5-c]quinolin-4-one], the MIC in assay [1] (setting [5]) is 10 to 100 µg/mL (≈ 25.7 to 257 µM); in assay [1] (setting [6]), 10 to 100 µg/mL (≈ 25.7 to 257 µM); in assay [2] it was more than 100 µg/mL; in assay [3], more than 100 µg/mL; in assay [4], 1 to 10 µg/mL (≈ 2.57 to 25.7 µM).
As to `Cc1c(-c2cnc(N)nc2)ccc2c3oc(CN)nc3c(=O)n(C3CC3)c12` [Compound 103, 2-(aminomethyl)-7-(2-aminopyrimidin-5-yl)-5-cyclopropyl-6-methyl-oxazolo[4,5-c]quinolin-4-one], the MIC is 1 to 10 µg/mL (≈ 2.76 to 27.6 µM) in assay [1] (setting [5]); 1 to 10 µg/mL (≈ 2.76 to 27.6 µM) in assay [1] (setting [6]); 1 to 10 µg/mL (≈ 2.76 to 27.6 µM) in assay [2]; 10 to 100 µg/mL (≈ 27.6 to 276 µM) in assay [3]; less than 1 µg/mL in assay [4].
For `C[C@H]1COc2c(-c3cnc(N)nc3)ccc3c4ocnc4c(=O)n1c23` [Compound 94, (2S)-6-(2-aminopyrimidin-5-yl)-2-methyl-4,11-dioxa-1,13-diazatetracyclo[7.6.1.0^5,^16.0^10,^14]hexadeca-5(16),6,8,10(14),12-pentaen-15-one], the MIC lay in the range of 1 to 10 µg/mL (≈ 2.98 to 29.8 µM) in assay [1] (setting [5]); 1 to 10 µg/mL (≈ 2.98 to 29.8 µM) in assay [1] (setting [6]); 10 to 100 µg/mL (≈ 29.8 to 298 µM) in assay [2]; 10 to 100 µg/mL (≈ 29.8 to 298 µM) in assay [3]; 1 to 10 µg/mL (≈ 2.98 to 29.8 µM) in assay [4].
Regarding `COc1c(N2CCC(N)C2)c(F)cc2c3ocnc3c(=O)n(C3CC3)c12` (stereo not shown) [Compound 97, 7-(3-aminopyrrolidin-1-yl)-5-cyclopropyl-8-fluoro-6-methoxyoxazolo[4,5-c]quinolin-4-one], the MIC in assay [1] (setting [5]) was less than 1 µg/mL; in assay [1] (setting [6]), less than 1 µg/mL; in assay [2] it was 1 to 10 µg/mL (≈ 2.79 to 27.9 µM); in assay [3], 10 to 100 µg/mL (≈ 27.9 to 279 µM); in assay [4], 1 to 10 µg/mL (≈ 2.79 to 27.9 µM).
Consider `Cc1nc2c(=O)n(C3CC3)c3c(C)c(-c4cnc(C(C)(C)O)nc4)ccc3c2o1` [Compound 37, 5-cyclopropyl-7-[2-(2-hydroxypropan-2-yl)pyrimidin-5-yl]-2,6-dimethyl-oxazolo[4,5-c]quinolin-4-one], for which the MIC in assay [1] (setting [5]) was 10 to 100 µg/mL (≈ 25.6 to 256 µM); in assay [1] (setting [6]) it was 10 to 100 µg/mL (≈ 25.6 to 256 µM); in assay [2], more than 100 µg/mL; in assay [3], more than 100 µg/mL; in assay [4], 10 to 100 µg/mL (≈ 25.6 to 256 µM).
`CC(=O)c1ccc(-c2ccc3c4ocnc4c(=O)n(C4CC4)c3c2C)nc1` [Compound 42, 7-(5-acetylpyridin-2-yl)-5-cyclopropyl-6-methyl-oxazolo[4,5-c]quinolin-4-one]: the MIC is 10 to 100 µg/mL (≈ 27.8 to 278 µM) in assay [1] (setting [5]); 10 to 100 µg/mL (≈ 27.8 to 278 µM) in assay [1] (setting [6]); more than 100 µg/mL in assay [2]; more than 100 µg/mL in assay [3]; more than 100 µg/mL in assay [4].
Consider `O=c1c2ncoc2c2cc(F)c(-c3cc(F)c(CO)cc3F)cc2n1C1CC1` [Compound 68, 5-cyclopropyl-7-[2,5-difluoro-4-(hydroxymethyl)phenyl]-8-fluoro-oxazolo[4,5-c]quinolin-4-one], for which the MIC in assay [1] (setting [5]) is less than 1 µg/mL; in assay [1] (setting [6]), less than 1 µg/mL; in assay [2] it was 1 to 10 µg/mL (≈ 2.59 to 25.9 µM); in assay [3], more than 100 µg/mL; in assay [4] it was less than 1 µg/mL.
`Cc1nc2c(=O)n(C3CC3)c3c(C)c(-c4ccc(N)c(F)c4)ccc3c2o1` [Compound 13]: the MIC is less than 1 µg/mL in assay [1] (setting [5]); less than 1 µg/mL in assay [1] (setting [6]); more than 100 µg/mL in assay [2]; more than 100 µg/mL in assay [3]; more than 100 µg/mL in assay [4].
As to `Nc1ncc(-c2cc3c(cc2F)c2ocnc2c(=O)n3C2CC2)cn1` [Compound 62, 7-(2-aminopyrimidin-5-yl)-5-cyclopropyl-8-fluoro-oxazolo[4,5-c]quinolin-4-one], the MIC is 1 to 10 µg/mL (≈ 2.96 to 29.6 µM) in assay [1] (setting [5]); 1 to 10 µg/mL (≈ 2.96 to 29.6 µM) in assay [1] (setting [6]); 10 to 100 µg/mL (≈ 29.6 to 296 µM) in assay [2]; more than 100 µg/mL in assay [3]; 1 to 10 µg/mL (≈ 2.96 to 29.6 µM) in assay [4].
For the compound `Cc1c(-c2cnoc2)ccc2c3ocnc3c(=O)n(C3CC3)c12` [Compound 43, 5-cyclopropyl-6-methyl-7-(1,2-oxazol-4-yl)-oxazolo[4,5-c]quinolin-4-one], the MIC in assay [1] (setting [5]) was 1 to 10 µg/mL (≈ 3.25 to 32.5 µM); in assay [1] (setting [6]), 1 to 10 µg/mL (≈ 3.25 to 32.5 µM); in assay [2] it was 10 to 100 µg/mL (≈ 32.5 to 325 µM); in assay [3], more than 100 µg/mL; in assay [4] it was 10 to 100 µg/mL (≈ 32.5 to 325 µM).
In the case of `Cc1nc2c(=O)n(C3CC3)c3cc(N4CCC(O)C4)c(F)cc3c2o1` (stereo not shown) [Compound 53, 5-cyclopropyl-8-fluoro-7-(3-hydroxypyrrolidin-1-yl)-2-methyl-oxazolo[4,5-c]quinolin-4-one], the MIC in assay [1] (setting [5]) was 10 to 100 µg/mL (≈ 29.1 to 291 µM); in assay [1] (setting [6]), 10 to 100 µg/mL (≈ 29.1 to 291 µM); in assay [2] it was 10 to 100 µg/mL (≈ 29.1 to 291 µM); in assay [3] it was more than 100 µg/mL; in assay [4] it was 1 to 10 µg/mL (≈ 2.91 to 29.1 µM).
With `CCn1c(=O)c2ncoc2c2cc(F)c(-c3ccc(N)nc3)c(C)c21` [Compound 106, 7-(6-amino-3-pyridyl)-5-ethyl-8-fluoro-6-methyl-oxazolo[4,5-c]quinolin-4-one], the MIC in assay [1] (setting [5]) was 10 to 100 µg/mL (≈ 29.6 to 296 µM); in assay [1] (setting [6]), 10 to 100 µg/mL (≈ 29.6 to 296 µM); in assay [2] it was more than 100 µg/mL; in assay [3] it was more than 100 µg/mL; in assay [4], 10 to 100 µg/mL (≈ 29.6 to 296 µM).
Take `Cc1nc2c(=O)n(C3CC3)c3c(C)c(-c4ccc(S(N)(=O)=O)cc4)ccc3c2o1` [Compound 17]: the MIC in assay [1] (setting [5]) is 1 to 10 µg/mL (≈ 2.44 to 24.4 µM); in assay [1] (setting [6]), 1 to 10 µg/mL (≈ 2.44 to 24.4 µM); in assay [2], 1 to 10 µg/mL (≈ 2.44 to 24.4 µM); in assay [3], more than 100 µg/mL; in assay [4], less than 1 µg/mL.
`O=c1c2ncoc2c2cc(F)c(-c3ccncc3Cl)cc2n1C1CC1` [Compound 59, 7-(3-chloro-4-pyridyl)-5-cyclopropyl-8-fluoro-oxazolo[4,5-c]quinolin-4-one]: the MIC in assay [1] (setting [5]) was 1 to 10 µg/mL (≈ 2.81 to 28.1 µM); in assay [1] (setting [6]), 1 to 10 µg/mL (≈ 2.81 to 28.1 µM); in assay [2], 10 to 100 µg/mL (≈ 28.1 to 281 µM); in assay [3] it was more than 100 µg/mL; in assay [4], 1 to 10 µg/mL (≈ 2.81 to 28.1 µM).
Consider `Cc1c(-c2ccc(O)cn2)ccc2c3ocnc3c(=O)n(C3CC3)c12` [Compound 45, 5-cyclopropyl-7-(5-hydroxypyridin-2-yl)-6-methyl-oxazolo[4,5-c]quinolin-4-one], for which the MIC is 10 to 100 µg/mL (≈ 30 to 300 µM) in assay [1] (setting [5]); 10 to 100 µg/mL (≈ 30 to 300 µM) in assay [1] (setting [6]); more than 100 µg/mL in assay [2]; more than 100 µg/mL in assay [3]; 10 to 100 µg/mL (≈ 30 to 300 µM) in assay [4].
Take `Cc1nc2c(=O)n(C3CC3)c3c(C)c(-c4cnn(C5CNC5)c4)ccc3c2o1` [Compound 12, 7-[1-(azetidin-3-yl)pyrazol-4-yl]-5-cyclopropyl-2,6-dimethyl-oxazolo[4,5-c]quinolin-4-one]: the MIC in assay [1] (setting [5]) was 1 to 10 µg/mL (≈ 2.66 to 26.6 µM); in assay [1] (setting [6]) it was more than 100 µg/mL; in assay [2], 10 to 100 µg/mL (≈ 26.6 to 266 µM); in assay [3], more than 100 µg/mL; in assay [4] it was 1 to 10 µg/mL (≈ 2.66 to 26.6 µM).
As to `CC(=O)c1cc(F)c(-c2cc3c(cc2F)c2oc(C)nc2c(=O)n3C2CC2)cc1F` [Compound 77, 7-(4-acetyl-2,5-difluoro-phenyl)-5-cyclopropyl-8-fluoro-2-methyl-oxazolo[4,5-c]quinolin-4-one], the MIC in assay [1] (setting [5]) was 10 to 100 µg/mL (≈ 24.3 to 243 µM); in assay [1] (setting [6]), 10 to 100 µg/mL (≈ 24.3 to 243 µM); in assay [2] it was more than 100 µg/mL; in assay [3] it was more than 100 µg/mL; in assay [4], more than 100 µg/mL.
Turning to `Cc1nc2c(=O)n(C3CC3)c3cc(-c4ccc5[nH]ncc5c4)c(F)cc3c2o1` [Compound 73, 5-cyclopropyl-8-fluoro-7-(1H-indazol-5-yl)-2-methyl-oxazolo[4,5-c]quinolin-4-one], the MIC is less than 1 µg/mL in assay [1] (setting [5]); less than 1 µg/mL in assay [1] (setting [6]); more than 100 µg/mL in assay [2]; more than 100 µg/mL in assay [3]; 1 to 10 µg/mL (≈ 2.67 to 26.7 µM) in assay [4].
As to `Cc1c(-c2cnc(N)cn2)ccc2c3ocnc3c(=O)n(C3CC3)c12` [Compound 6, 7-(5-aminopyrazin-2-yl)-5-cyclopropyl-6-methyl-oxazolo[4,5-c]quinolin-4-one], the MIC in assay [1] (setting [5]) is 10 to 100 µg/mL (≈ 30 to 300 µM); in assay [1] (setting [6]), 10 to 100 µg/mL (≈ 30 to 300 µM); in assay [2], more than 100 µg/mL; in assay [3] it was more than 100 µg/mL; in assay [4] it was more than 100 µg/mL.
